# Data as given in US5298508A, “Irreversible inhibitors of adenosine receptors” (priority 1992, dated 1994).
# Read-outs that look alike come from different tables or passages of the source.
# How the values were obtained:
# [1] = target: T1, A1 adenosine receptors (Rattus norvegicus, UniProt P25099); test: inhibition of binding of [3H]N6-phenylisopropyladenosine ([3H]PIA) to A1 adenosine receptors in rat cerebral cortex membranes
# T1 construct: A1 adenosine receptors in rat cerebral cortex membranes; from tissue; host or cells: rat cerebral cortex membranes
# T1 sequence (P25099 1-326): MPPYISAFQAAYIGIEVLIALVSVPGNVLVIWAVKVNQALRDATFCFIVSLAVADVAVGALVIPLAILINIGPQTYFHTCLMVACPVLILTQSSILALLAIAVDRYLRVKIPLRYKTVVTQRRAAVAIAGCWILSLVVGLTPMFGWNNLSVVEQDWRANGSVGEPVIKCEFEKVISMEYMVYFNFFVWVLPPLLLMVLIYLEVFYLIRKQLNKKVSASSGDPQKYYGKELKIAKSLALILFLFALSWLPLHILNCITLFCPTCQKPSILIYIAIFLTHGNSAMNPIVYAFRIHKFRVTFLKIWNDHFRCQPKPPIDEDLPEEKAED
# Description: Ukena et al., FEBS Letters 209;122, 1986.
# For the biochemical assays, stock solutions of xanthines in the millimolar concentration range in dimethylsulfoxide were prepared and stored frozen. The solutions were warmed to 50° C. prior to dilution in aqueous medium. […] Acad. Sci. USA, 83:4089, 1986. Inhibition of binding by a range of concentrations of a xanthine or adenosine derivative was assessed in triplicate in at least three separate experiments.
# [2] = target: T2, central A1 receptors (Rattus norvegicus, UniProt P25099); assay type: binding
# T2 construct: A1 -adenosine receptors in rat brain membranes; from tissue; host or cells: rat brain membranes
# T2 sequence (P25099 1-326): T1 sequence (P25099 1-326)
# [3] = target: T3, central A1 receptors (Bos taurus, UniProt P28190); test: inhibition of radioligand binding at central A1 receptors, calf brain membranes
# T3 construct: A1 -adenosine receptors in membranes form calf brain; from tissue; host or cells: calf brain membranes
# T3 sequence (P28190 1-326): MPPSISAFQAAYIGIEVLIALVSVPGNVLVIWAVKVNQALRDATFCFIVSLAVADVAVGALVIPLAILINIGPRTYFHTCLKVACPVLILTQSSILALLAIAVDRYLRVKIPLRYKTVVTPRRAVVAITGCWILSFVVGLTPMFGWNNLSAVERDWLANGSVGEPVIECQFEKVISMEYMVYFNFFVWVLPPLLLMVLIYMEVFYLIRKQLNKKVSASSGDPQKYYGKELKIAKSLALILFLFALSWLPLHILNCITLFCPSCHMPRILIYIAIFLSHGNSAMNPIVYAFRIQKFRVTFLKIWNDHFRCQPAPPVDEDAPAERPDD
# Source text: ^b against [^125 I]APNEA (i.e. N^6
# ^b against [^125 I]APNEA;
# The compounds, at concentrations relative to the Ki -values obtained, were screened for the ability to inhibit competitive binding of the radioligands [^3 H]PIA to rat brain membranes and [^3 H]XAC to bovine brain membranes, a shown in Table 1.
# [4] = Table I, rat, against [3H]PIA, read-out: Ki at central A1 receptors, rat
# [5] = read-out: Ki at central A1 receptors, rat
# [6] = read-out: Ki at central A1 receptors, calf
# [7] = Table I, calf, against [125I]APNEA, read-out: Ki at central A1 receptors, calf
SMILES,"Ki [1, 4] [nM]","Ki [1, 5] [nM]",also measured
CCCn1c(=O)c2[nH]c(-c3ccc(OCC(=O)NCCNC(=O)CCSSc4ccccn4)cc3)nc2n(CCC)c1=O [Compound 22],23.8 ± 3.51,,
CCCn1c(=O)c2[nH]c(-c3ccc(OCC(=O)NCCNC(=S)Nc4cccc(N=C=S)c4)cc3)nc2n(CCC)c1=O [Compound 5b],,,"inhibition at 0.005 µM ([2]; read-out: % inhib (conc)): 49%; potency of irreversible inhibition, meta versus para phenylisothiocyanate ([2]; xanthine series, result in words): meta-position favored (5b) over the para-position (4b); relative potency in the binding assay, 5b versus 4b ([1]; meta versus para isomer): more than twice as potent in the binding assay than 4b; Ki [3]: 0.5 nM"
CCCn1c(=O)c2[nH]c(-c3ccc(OCC(=O)NCCNC(=S)Nc4c(F)c(F)c(F)c(F)c4F)cc3)nc2n(CCC)c1=O [Compound 9],9.07 ± 0.9,,
COc1ccc(NC(=S)NCCNC(=O)Cc2ccc(NC(=O)Cc3ccc(Nc4ncnc5c4ncn5[C@@H]4O[C@H](CO)[C@@H](O)[C@H]4O)cc3)cc2)cc1 [Compound 30],,5,
CCCn1c(=O)c2[nH]c(-c3ccc(OCC(=O)NCCNS(=O)(=O)c4cccc(S(=O)(=O)Cl)c4)cc3)nc2n(CCC)c1=O [Compound 13],2.5 ± 0.47,,inhibition at 0.1 µM ([2]; read-out: % inhib (conc)): 20%
O=C(Cc1ccc(NC(=O)Cc2ccc(Nc3ncnc4c3ncn4[C@@H]3O[C@H](CO)[C@@H](O)[C@H]3O)cc2)cc1)NCCNC(=S)Nc1ccc(N=C=S)cc1 [Compound 27],,,inhibition at 0.05 µM ([2]; read-out: % inhib (conc)): > 80%; irreversible inhibition of central A1-adenosine receptors ([2]; result in words): behave pharmacologically as irreversible inhibitors of central A1 -adenosine receptors; Ki [1]: 0.47 ± 0.13 nM; Ki [3]: 0.1 nM
CCCn1c(=O)c2nc(-c3ccc(OCC(=O)NCCNC(=O)CCCN4C(=O)C=CC4=O)cc3)[nH]c2n(CCC)c1=O [Compound 23],,63,
CCCn1c(=O)c2nc(-c3ccc(OCC(=O)NCCN=C(S)Nc4ccc([N+](=O)[O-])cc4)cc3)[nH]c2n(CCC)c1=O [Compound 11],,5,
O=C(Cc1ccc(Nc2ncnc3c2ncn3[C@@H]2O[C@H](CO)[C@@H](O)[C@H]2O)cc1)Nc1ccc(CC(=O)ON2C(=O)CCC2=O)cc1 [Compound 25],,9.6 ± 1.44,
"CCCn1c(=O)c2[nH]c(-c3ccc(OCC(=O)NCCNC(=O)CBr)cc3)nc2n(CCC)c1=O [Compound 18, 8-[2-[4-bromoacetylaminoethyl[amino[carbonyl[methyloxyphenyl]]]]]-1,3-dipropylxanthine]",17.6 ± 1.5,,
CCCn1c(=O)c2[nH]c(-c3ccc(OCC(=O)NCCNC(=O)c4ccc(CBr)cc4)cc3)nc2n(CCC)c1=O [Compound 19],11.5 ± 1.5,,"Ki [3, 6]: 6.9 nM"
O=C(Cc1ccc(NC(=O)Cc2ccc(Nc3ncnc4c3ncn4[C@@H]3O[C@H](CO)[C@@H](O)[C@H]3O)cc2)cc1)NCCNC(=S)Nc1ccc([N+](=O)[O-])cc1 [Compound 34],,1,
O=C(Cc1ccc(NC(=O)Cc2ccc(Nc3ncnc4c3ncn4[C@@H]3O[C@H](CO)[C@@H](O)[C@H]3O)cc2)cc1)NCCNC(=S)Nc1ccc(S(=O)(=O)O)cc1 [Compound 35],,100,
O=C(CBr)NCCNC(=O)Cc1ccc(NC(=O)Cc2ccc(Nc3ncnc4c3ncn4[C@@H]3O[C@H](CO)[C@@H](O)[C@H]3O)cc2)cc1 [Compound 36],,5,
CCCn1c(=O)c2[nH]c(-c3ccc(OCC(=O)NCCNC(=O)CNC(=S)Nc4ccc(N=C=S)cc4)cc3)nc2n(CCC)c1=O [Compound 16c],6.85 ± 1.14,,inhibition at 0.5 µM ([2]; read-out: % inhib (conc)): 50%; irreversible inhibition of central A1-adenosine receptors ([2]; result in words): behave pharmacologically as irreversible inhibitors of central A1 -adenosine receptors
"NCCNC(=O)Cc1ccc(NC(=O)Cc2ccc(Nc3ncnc4c3ncn4[C@@H]3O[C@H](CO)[C@@H](O)[C@H]3O)cc2)cc1 [Compound 26a, reference compound]",,,Ki [3]: 0.2 nM
CCCn1c(=O)c2[nH]c(-c3ccc(OCC(=O)NCCNS(=O)(=O)c4ccc(C)cc4)cc3)nc2n(CCC)c1=O [Compound 14],72 ± 7.2,,

SMILES,"Ki [1, 4] [nM]","Ki [1, 5] [nM]",also measured
CCCn1c(=O)c2[nH]c(-c3ccc(OCC(=O)NCCNC(=S)Nc4ccc(C)cc4)cc3)nc2n(CCC)c1=O [Compound 6],16 ± 2.9,,
O=C(Cc1ccc(NC(=O)Cc2ccc(Nc3ncnc4c3ncn4[C@@H]3O[C@H](CO)[C@@H](O)[C@H]3O)cc2)cc1)NCCNC(=S)Nc1ccc(Br)cc1 [Compound 33],,1.19 ± 0.14,
O=C(Cc1ccc(NC(=O)Cc2ccc(Nc3ncnc4c3ncn4[C@@H]3O[C@H](CO)[C@@H](O)[C@H]3O)cc2)cc1)NCCNC(=S)Nc1c(F)c(F)c(F)c(F)c1F [Compound 32],,1.64 ± 0.47,
CCCn1c(=O)c2[nH]c(-c3ccc(OCC(=O)NCCNC(=S)Nc4ccc(Br)cc4)cc3)nc2n(CCC)c1=O [Compound 10],7.26 ± 0.9,,
CCCn1c(=O)c2[nH]c(-c3ccc(OCC(=O)NCCNC(=O)Cc4ccc(NC(=S)Nc5ccc(N=C=S)cc5)cc4)cc3)nc2n(CCC)c1=O [Compound 15e],,,inhibition at 0.1 µM ([2]; read-out: % inhib (conc)): 10%; Ki [1]: 30 nM
Cc1ccc(NC(=S)NCCNC(=O)Cc2ccc(NC(=O)Cc3ccc(Nc4ncnc5c4ncn5[C@@H]4O[C@H](CO)[C@@H](O)[C@H]4O)cc3)cc2)cc1 [Compound 29],,3.72 ± 0.44,
CCCn1c(=O)c2[nH]c(-c3ccc(OCC(=O)NCC=O)cc3)nc2n(CCC)c1=O [Compound 2b],266 ± 40,,"% inhib (conc) ([2]; 500 nM, one hour incubation and washout, rat brain membranes, against [125I]APNEA): 0%; Ki [3, 7]: 1.5 ± 0.1 nM"
CCCn1c(=O)c2nc(-c3ccc(OCC(=O)NCCN=C(S)Nc4ccc(OC)cc4)cc3)[nH]c2n(CCC)c1=O [Compound 7],20,,
O=C(Cc1ccc(Nc2ncnc3c2ncn3[C@@H]2O[C@H](CO)[C@@H](O)[C@H]2O)cc1)ON1C(=O)CCC1=O [Compound 24],,,"Ki ([1]; Table II, rat, against [3H]PIA, read-out: Ki at central A1 receptors, rat): 8.37 ± 0.73 nM"
CCCn1c(=O)c2nc(-c3ccc(OCC(=O)NCCN=C(S)Nc4ccc(S(=O)(=O)O)cc4)cc3)[nH]c2n(CCC)c1=O [Compound 12],,430,
O=C(Cc1ccc(NC(=O)Cc2ccc(Nc3ncnc4c3ncn4[C@@H]3O[C@H](CO)[C@@H](O)[C@H]3O)cc2)cc1)NCCN=C=S [Compound 26b],,,Ki [1]: 4 nM; Ki [3]: 2.5 nM
CCCn1c(=O)c2[nH]c(-c3ccc(OCC(=O)ON4C(=O)CCC4=O)cc3)nc2n(CCC)c1=O [Compound 1],9 ± 0.7,,"inhibition at 0.5 µM ([2]; read-out: % inhib (conc)): 0%; irreversible inhibition of central A1-adenosine receptors ([2]; result in words): only the longest of the series, SUS-XAC, 21, inhibits binding irreversibly"
CCCn1c(=O)c2[nH]c(-c3ccc(OCC(=O)NCCNC(=O)CCCCCCC(=O)ON4C(=O)CCC4=O)cc3)nc2n(CCC)c1=O [Compound 21],3.69 ± 0.71,,"inhibition at 0.5 µM ([2]; read-out: % inhib (conc)): 40%; irreversible inhibition of central A1-adenosine receptors ([2]; result in words): inhibits binding irreversibly; Ki [3, 7]: 15.8 nM"
CCCn1c(=O)c2nc(-c3ccc(OCC(=O)NCCN=C(S)Nc4ccc(F)cc4)cc3)[nH]c2n(CCC)c1=O [Compound 8],,12.8,
"CCCn1c(=O)c2[nH]c(-c3ccc(OCC(=O)NCCN)cc3)nc2n(CCC)c1=O [Compound 3, reference compound]",1.1 ± 0.05,,"Ki [3, 7]: 0.2 nM"
CCCn1c(=O)c2[nH]c(-c3ccc(OCC(=O)NCCNC(=O)CCCCC(C)=O)cc3)nc2n(CCC)c1=O [Compound 17],44 ± 9,,"inhibition at 0.5 µM ([2]; read-out: % inhib (conc)): 0%; Ki [3, 6]: 3.2 nM"

# Further lines, with some results ahead:
"Ki [1, 4] [nM]","Ki [1, 5] [nM]",SMILES,also measured
40,,CCCn1c(=O)c2[nH]c(-c3ccc(OCC(=O)NCCNC(=O)Cc4ccc(N)cc4)cc3)nc2n(CCC)c1=O [Compound 15d],
,5,O=C(Cc1ccc(NC(=O)Cc2ccc(Nc3ncnc4c3ncn4[C@@H]3O[C@H](CO)[C@@H](O)[C@H]3O)cc2)cc1)NCCNC(=S)Nc1ccc(F)cc1 [Compound 31a],
,10.7,O=C(Cc1ccc(NC(=O)Cc2ccc(Nc3ncnc4c3ncn4[C@@H]3O[C@H](CO)[C@@H](O)[C@H]3O)cc2)cc1)NCCNC(=S)Nc1ccccc1F [Compound 31b],
53 ± 12,,CCCn1c(=O)c2[nH]c(-c3ccc(OCC(=O)NCCNC(=O)Cc4ccc(NC(=O)OC(C)(C)C)cc4)cc3)nc2n(CCC)c1=O [Compound 15c],
20 ± 4.5,,CCCn1c(=O)c2[nH]c(-c3ccc(OCC(=O)NCCNC(=O)CCC(=O)ON4C(=O)CCC4=O)cc3)nc2n(CCC)c1=O [Compound 20b],"inhibition at 0.5 µM ([2]; read-out: % inhib (conc)): 0%; irreversible inhibition of central A1-adenosine receptors ([2]; result in words): only the longest of the series, SUS-XAC, 21, inhibits binding irreversibly"
